Source: PMC5408257, “Bioactive Metabolites from the Deep Subseafloor Fungus Oidiodendron griseum UBOCC-A-114129” (Marine Drugs, 2017)
pIC50: −log10 of the molar value.

Biological target: T1, CDC2-like kinase-1 (CLK1) (Mus musculus, UniProt P22518)
T1 construct: Recombinant GST-CLK1
Assay: radiometric kinase assay with […] [gamma-33P] ATP, dose-response (n = […])
Type: biochemical

T1 sequence (P22518 whole entry): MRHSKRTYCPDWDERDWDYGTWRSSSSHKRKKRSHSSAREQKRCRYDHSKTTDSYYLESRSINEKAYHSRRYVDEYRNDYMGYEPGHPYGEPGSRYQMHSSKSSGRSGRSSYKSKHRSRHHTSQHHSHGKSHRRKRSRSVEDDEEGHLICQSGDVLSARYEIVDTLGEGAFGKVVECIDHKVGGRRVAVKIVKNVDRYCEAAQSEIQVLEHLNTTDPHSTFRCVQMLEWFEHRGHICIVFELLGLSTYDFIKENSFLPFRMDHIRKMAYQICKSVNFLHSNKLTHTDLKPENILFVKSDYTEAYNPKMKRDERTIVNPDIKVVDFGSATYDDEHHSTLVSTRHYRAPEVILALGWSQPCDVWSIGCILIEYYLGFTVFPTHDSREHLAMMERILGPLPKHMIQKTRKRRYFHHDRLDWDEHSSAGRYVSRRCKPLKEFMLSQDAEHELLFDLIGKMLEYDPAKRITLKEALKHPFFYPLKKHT

## CC(C)=CCc1c(O)c(O)c(O)c2c1CC(=O)OC2C (stereo not shown) [compound 3, dihydrosecofuscin]
  pIC50: 4.25
